{
  "source": "patent US20260285850A1",
  "about": "“SUBSTITUTED OXAZOLIDINONES AND IMIDAZOLINONES AS HERBICIDES” (FMC CORPORATION, priority 2023, published 2026)",
  "format_in_all_cases": "in vivo",
  "key": {"[1]": {"test_system": "wheat (Triticum aestivum)", "assay": "Test A preemergence soil spray, visual injury rating 0-100", "conditions": "10 days", "in_short": "(§1)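 Grow plants in loam soil blended with sand. Apply formulated compound (non-phytotoxic solvent, surfactant) as a directed soil spray before emergence, or to plants at the one- to two-leaf stage after emergence. Hold in greenhouse 10 days, then rate injury visually versus untreated controls on a 0-100 scale.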"}, "[2]": {"test_system": "blackgrass (Alopecurus myosuroides)", "assay": "Test A preemergence soil spray, visual injury rating 0-100", "conditions": "10 days", "in_short": "as §1"}, "[3]": {"test_system": "kochia (Bassia scoparia)", "assay": "Test A preemergence soil spray, visual injury rating 0-100", "conditions": "10 days", "in_short": "as §1"}, "[4]": {"test_system": "ryegrass, Italian (italian ryegrass, Lolium multiflorum)", "assay": "Test A preemergence soil spray, visual injury rating 0-100", "conditions": "10 days", "in_short": "as §1"}, "[5]": {"test_system": "ragweed (common ragweed, Ambrosia artemisiifolia)", "assay": "Test A preemergence soil spray, visual injury rating 0-100", "conditions": "10 days", "in_short": "as §1"}, "[6]": {"test_system": "corn (Zea mays)", "assay": "Test A preemergence soil spray, visual injury rating 0-100", "conditions": "10 days", "in_short": "as §1"}, "[7]": {"test_system": "palmer (palmer amaranth, palmer pigweed, Amaranthus palmeri)", "assay": "Test A preemergence soil spray, visual injury rating 0-100", "conditions": "10 days", "in_short": "as §1"}, "[8]": {"test_system": "green foxtail (Setaria viridis)", "assay": "Test A preemergence soil spray, visual injury rating 0-100", "conditions": "10 days", "in_short": "as §1"}, "[9]": {"test_system": "soybean (Glycine max)", "assay": "Test A preemergence soil spray, visual injury rating 0-100", "conditions": "10 days", "in_short": "as §1"}, "[10]": {"test_system": "barnyardgrass (Echinochloa crus-galli)", "assay": "Test A preemergence soil spray, visual injury rating 0-100", "conditions": "10 days", "in_short": "as §1"}, "[11]": {"test_system": "oat, wild (wild oat, Avena fatua)", "assay": "Test A preemergence soil spray, visual injury rating 0-100", "conditions": "10 days", "in_short": "as §1"}, "[12]": {"test_system": "sedge, umbrella (small-flower umbrella sedge, Cyperus difformis)", "assay": "Test B flooded paddy test, visual plant response rating 0-100", "conditions": "250 g ai/ha, Flood, applied to paddy water, evaluated after 13 days", "in_short": "(§2)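 Treatment occurs at the 2-leaf stage by adding compound to floodwater standing 3 cm above the soil, a level kept for the whole test. Plants stay in the greenhouse 13 days before visual comparison with controls.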"}, "[13]": {"test_system": "ducksalad (Heteranthera limosa)", "assay": "Test B flooded paddy test, visual plant response rating 0-100", "conditions": "250 g ai/ha, Flood, applied to paddy water, evaluated after 13 days", "in_short": "as §2"}, "[14]": {"test_system": "barnyardgrass (Echinochloa crusgalli)", "assay": "Test B flooded paddy test, visual plant response rating 0-100", "conditions": "250 g ai/ha, Flood, applied to paddy water, evaluated after 13 days", "in_short": "as §2"}, "[15]": {"test_system": "rice (Oryza sativa)", "assay": "Test B flooded paddy test, visual plant response rating 0-100", "conditions": "250 g ai/ha, Flood, applied to paddy water, evaluated after 13 days", "in_short": "as §2"}, "[16]": {"test_system": "wheat (Triticum aestivum)", "assay": "Test A postemergence application, visual injury rating 0-100", "in_short": "as §1"}, "[17]": {"test_system": "blackgrass (Alopecurus myosuroides)", "assay": "Test A postemergence application, visual injury rating 0-100", "in_short": "as §1"}, "[18]": {"test_system": "kochia (Bassia scoparia)", "assay": "Test A postemergence application, visual injury rating 0-100", "in_short": "as §1"}, "[19]": {"test_system": "ryegrass, Italian (italian ryegrass, Lolium multiflorum)", "assay": "Test A postemergence application, visual injury rating 0-100", "in_short": "as §1"}, "[20]": {"test_system": "ragweed (common ragweed, Ambrosia artemisiifolia)", "assay": "Test A postemergence application, visual injury rating 0-100", "in_short": "as §1"}, "[21]": {"test_system": "horseweed (Erigeron canadensis)", "assay": "Test A postemergence application, visual injury rating 0-100", "in_short": "as §1"}, "[22]": {"test_system": "corn (Zea mays)", "assay": "Test A postemergence application, visual injury rating 0-100", "in_short": "as §1"}, "[23]": {"test_system": "palmer (palmer amaranth, palmer pigweed, Amaranthus palmeri)", "assay": "Test A postemergence application, visual injury rating 0-100", "in_short": "as §1"}, "[24]": {"test_system": "galium (catchweed bedstraw, Galium aparine)", "assay": "Test A postemergence application, visual injury rating 0-100", "conditions": "Postemergence, 16 g ai/ha, greenhouse 10 days; 0 no effect, 100 complete control", "in_short": "as §1"}, "[25]": {"test_system": "green foxtail (Setaria viridis)", "assay": "Test A postemergence application, visual injury rating 0-100", "in_short": "as §1"}, "[26]": {"test_system": "soybean (Glycine max)", "assay": "Test A postemergence application, visual injury rating 0-100", "in_short": "as §1"}, "[27]": {"test_system": "barnyardgrass (Echinochloa crus-galli)", "assay": "Test A postemergence application, visual injury rating 0-100", "in_short": "as §1"}, "[28]": {"test_system": "oat, wild (wild oat, Avena fatua)", "assay": "Test A postemergence application, visual injury rating 0-100", "in_short": "as §1"}, "[29]": {"conditions": "62 g ai/ha, 0 = no effect, 100 = complete control"}, "[30]": {"conditions": "62 g ai/ha, postemergence, 10 days, 0 = no effect, 100 = complete control"}, "[31]": {"conditions": "Postemergence, 16 g ai/ha, greenhouse 10 days, 0 no effect, 100 complete control"}},
  "data": [
    {"smiles": "CC1(C(=O)NC2CC=C(C(=O)OCC(F)F)C2)CN(c2cc(F)cc(F)c2)C(=O)O1", "note": "(stereo not drawn) [Compound 151]", "values": [
      {"measurement": "Wheat plant response rating", "setting": "[1]; 16 g ai/ha, 0 to 100 scale", "result": 0},
      {"measurement": "Wheat plant response rating (0-100)", "setting": "[1]; [29]", "result": 0},
      {"measurement": "Blackgrass plant response rating", "setting": "[2]; 16 g ai/ha, 0 to 100 scale", "result": 0},
      {"measurement": "Blackgrass plant response rating (0-100)", "setting": "[2]; [29]", "result": 0},
      {"measurement": "Kochia plant response rating", "setting": "[3]; 16 g ai/ha, 0 to 100 scale", "result": 0},
      {"measurement": "Kochia plant response rating (0-100)", "setting": "[3]; [29]", "result": 0},
      {"measurement": "Ryegrass, Italian plant response rating", "setting": "[4]; 16 g ai/ha, 0 to 100 scale", "result": 0},
      {"measurement": "Ryegrass, Italian plant response rating (0-100)", "setting": "[4]; [29]", "result": 0},
      {"measurement": "Ragweed plant response rating", "setting": "[5]; 16 g ai/ha, 0 to 100 scale", "result": 0},
      {"measurement": "Ragweed plant response rating (0-100)", "setting": "[5]; [29]", "result": 0},
      {"measurement": "Corn plant response rating", "setting": "[6]; 16 g ai/ha, 0 to 100 scale", "result": 0},
      {"measurement": "Corn plant response rating (0-100)", "setting": "[6]; [29]", "result": 0},
      {"measurement": "Pigweed, Palmer plant response rating", "setting": "[7]; 16 g ai/ha, 0 to 100 scale", "result": 0},
      {"measurement": "Pigweed, Palmer plant response rating (0-100)", "setting": "[7]; [29]", "result": 0},
      {"measurement": "Foxtail, Green plant response rating", "setting": "[8]; 16 g ai/ha, 0 to 100 scale", "result": 0},
      {"measurement": "Foxtail, Green plant response rating (0-100)", "setting": "[8]; [29]", "result": 0},
      {"measurement": "Soybean plant response rating", "setting": "[9]; 16 g ai/ha, 0 to 100 scale", "result": 0},
      {"measurement": "Soybean plant response rating (0-100)", "setting": "[9]; [29]", "result": 0},
      {"measurement": "Barnyardgrass plant response rating", "setting": "[10]; 16 g ai/ha, 0 to 100 scale", "result": 0},
      {"measurement": "Barnyardgrass plant response rating (0-100)", "setting": "[10]; [29]", "result": 0},
      {"measurement": "Oat, Wild plant response rating", "setting": "[11]; 16 g ai/ha, 0 to 100 scale", "result": 0},
      {"measurement": "Oat, Wild plant response rating (0-100)", "setting": "[11]; [29]", "result": 0},
      {"measurement": "Plant response rating, Sedge, Umbrella (0 to 100 scale, 0 is no effect and 100 is complete control)", "setting": "[12]", "result": 0},
      {"measurement": "Plant response rating, Ducksalad (0 to 100 scale, 0 is no effect and 100 is complete control)", "setting": "[13]", "result": 0},
      {"measurement": "Plant response rating, Barnyardgrass (0 to 100 scale, 0 is no effect and 100 is complete control)", "setting": "[14]", "result": 0},
      {"measurement": "Plant response rating, Rice (0 to 100 scale, 0 is no effect and 100 is complete control)", "setting": "[15]", "result": 0},
      {"measurement": "Wheat plant response rating (0-100)", "setting": "[16]; [30]", "result": 0},
      {"measurement": "Wheat plant response rating (0 to 100 scale)", "setting": "[16]; [31]", "result": 0},
      {"measurement": "Blackgrass plant response rating (0-100)", "setting": "[17]; [30]", "result": 0},
      {"measurement": "Blackgrass plant response rating (0 to 100 scale)", "setting": "[17]; [31]", "result": 0},
      {"measurement": "Kochia plant response rating (0-100)", "setting": "[18]; [30]", "result": 0},
      {"measurement": "Kochia plant response rating (0 to 100 scale)", "setting": "[18]; [31]", "result": 0},
      {"measurement": "Ryegrass, Italian plant response rating (0-100)", "setting": "[19]; [30]", "result": 0},
      {"measurement": "Ryegrass, Italian plant response rating (0 to 100 scale)", "setting": "[19]; [31]", "result": 0},
      {"measurement": "Ragweed plant response rating (0-100)", "setting": "[20]; [30]", "result": 0},
      {"measurement": "Ragweed plant response rating (0 to 100 scale)", "setting": "[20]; [31]", "result": 0},
      {"measurement": "Horseweed plant response rating (0-100)", "setting": "[21]; [30]", "result": 0},
      {"measurement": "Horseweed plant response rating (0 to 100 scale)", "setting": "[21]; [31]", "result": 0},
      {"measurement": "Corn plant response rating (0-100)", "setting": "[22]; [30]", "result": 0},
      {"measurement": "Corn plant response rating (0 to 100 scale)", "setting": "[22]; [31]", "result": 0},
      {"measurement": "Pigweed, Palmer plant response rating (0-100)", "setting": "[23]; [30]", "result": 0},
      {"measurement": "Pigweed, Palmer plant response rating (0 to 100 scale)", "setting": "[23]; [31]", "result": 0},
      {"measurement": "Galium plant response rating (0 to 100 scale)", "setting": "[24]", "result": 0},
      {"measurement": "Foxtail, Green plant response rating (0-100)", "setting": "[25]; [30]", "result": 0},
      {"measurement": "Foxtail, Green plant response rating (0 to 100 scale)", "setting": "[25]; [31]", "result": 0},
      {"measurement": "Soybean plant response rating (0-100)", "setting": "[26]; [30]", "result": 0},
      {"measurement": "Soybean plant response rating (0 to 100 scale)", "setting": "[26]; [31]", "result": 0},
      {"measurement": "Barnyardgrass plant response rating (0-100)", "setting": "[27]; [30]", "result": 20},
      {"measurement": "Barnyardgrass plant response rating (0 to 100 scale)", "setting": "[27]; [31]", "result": 0},
      {"measurement": "Oat, Wild plant response rating (0-100)", "setting": "[28]; [30]", "result": 0},
      {"measurement": "Oat, Wild plant response rating (0 to 100 scale)", "setting": "[28]; [31]", "result": 0}
    ]}
  ]
}
